Calls of active or inactive are those of the source. The calls are words filed in the database; no cut-off is given here.

The subject of one assay is Mycolicibacterium smegmatis. In words: Antimycobacterial activity was evaluated against Mycobacterium smegmatis; Active. It is filed as functional, organism-based.
Regarding `CC[C@H](CO)NCCN[C@@H](CC)CO`, the outcome was Active.
Turning to `OC[C@H]1N[C@@H](CSc2ccccc2)C(O)[C@H]1O` (stereo not given in full), the outcome was Active.
On the same count and under the same terms, as for `CC[C@@H](CO)NCCN[C@@H](C)CO`, the entry is “Active”; as for `CC[C@@H](CO)NCCN[C@H](C)CO`, “Active”.
The same measure, in the same setting: as for `OC[C@H](Cc1ccccc1)NCCN[C@@H](CO)Cc1ccccc1`, the entry is “Active”; as for `OCCNCCNCCO`, “Active”.
The same measure, in the same setting: then `CC[C@@H](CO)NCCN[C@@H](CC)CO`, with “Active”.
`CC[C@@H](CO)NCCN1CCC[C@H]1CO`: the outcome was Active.
Same read-out and setting: as for `CC(C)C[C@@H](CO)NCCN[C@@H](CO)CC(C)C`, the entry is “Active”; as for `OC[C@@H]1CCCN1CCN1CCC[C@H]1CO`, “Active”.
Still for that read-out and setting: as for `CC(C)[C@@H](CO)NCCN[C@H](CO)C(C)C`, the entry is “Active”.

For another assay, the system named is Mycolicibacterium smegmatis. Kind of assay: Antimycobacterial activity was evaluated against Mycobacterium smegmatis; Inactive. The assay is classed as functional, organism-based.
As to `O=C(O)CN(CCN(CC(=O)O)CC(=O)O)CC(=O)O`, the result was inactive.
The same measure, in the same setting: then `OCCNCCNCCO`, with “inactive”.
The same measure, in the same setting: as for `COC(=O)[C@H](CO)NCCN[C@@H](CO)C(=O)OC`, the entry is “inactive”; as for `O=C(O)CNCCNCC(=O)O`, “inactive”.

(Values after ChEMBL document CHEMBL1134116, “Ethambutol analogues as potential antimycobacterial agents” (Bioorg Med Chem Lett, 2001).)
